The text below walks through data of ChEMBL document CHEMBL1201862, “PubChem BioAssay data set” (2004).

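96-well plates; 48 h exposure; 5 concentrations. Endpoints by linear interpolation between flanking doses. Not reached: highest tested concentration assigned. GI50: concentration for 50% inhibition of growth.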 Active and inactive are the calls of the source. No stated cut-off is given here; in the data, active = GI50 up to about 1.1 µM and inactive = higher. Where only a bound is given, the exact number is not on record here.

Some test systems named below: U-251; UACC-62; SK-OV-3; DU-145; NCI-H460; SR; NCI-H226; ACHN; SF-295; LOX IMVI; MDA-MB-435; RPMI-8226; HCT-15; CAKI-1; NCI/ADR-RES; MOLT-4; MDA-MB-231; OVCAR-5; K562; SN12C.
What all share (assay): NCI-60 cell line screen, 48 h

In the case of `CC(=O)Nc1ccc(-c2nc3ccccc3s2)cc1C`, the GI50 in the assay with U-251 was 71.6 µM (inactive); in the assay on UACC-62 it was 47.1 µM (inactive); in the assay with SK-OV-3 it was 32.6 µM (inactive); with DU-145, 22.2 µM (inactive); in the assay on NCI-H460 it was 78.2 µM (inactive); with SR, 27.7 µM (inactive). For the same molecule, the GI50 with NCI-H226 was 26.9 µM (inactive); with ACHN, 44.4 µM (inactive); in the assay with SF-295 it was 40 µM (inactive); with LOX IMVI it was 36.5 µM (inactive); with MDA-MB-435, > 100 µM (inactive); with RPMI-8226 it was 55.2 µM (inactive). Moreover, the GI50 with HCT-15 is more than 100 µM; in the assay on CAKI-1, 18.2 µM (inactive); in the assay with NCI/ADR-RES it was 42.2 µM (inactive); with MOLT-4, 24.9 µM (inactive); in the assay on MDA-MB-231, 20 µM (inactive).
Turning to `O=C(Nc1cccc(Cl)c1)Nn1cnnc1`, the GI50 in the assay with U-251, in the assay on UACC-62, with SK-OV-3, in the assay with DU-145, with NCI-H460 and with SR was > 100 µM (inactive) each time. The GI50 with OVCAR-5 was 0.339 µM (active); in the assay on NCI-H226 it was > 100 µM (inactive); in the assay with ACHN, > 100 µM (inactive); in the assay on SF-295, > 100 µM (inactive); in the assay with MDA-MB-435 it was > 100 µM (inactive); with RPMI-8226 it was > 100 µM (inactive). The GI50 was more than 100 µM in the assay with HCT-15; > 100 µM (inactive) in the assay with CAKI-1; > 100 µM (inactive) in the assay with K562; > 100 µM (inactive) with NCI/ADR-RES; > 100 µM (inactive) in the assay on SN12C; > 100 µM (inactive) with MOLT-4. The GI50 with MDA-MB-231 is > 100 µM (inactive).
On to `O=c1[nH]ncc2[nH]c3c(c12)CCc1ccccc1-3`, for which the GI50 with U-251 was 31.6 µM (inactive); with SK-OV-3, 24.6 µM (inactive); in the assay with DU-145, 38 µM (inactive); in the assay on NCI-H460 it was 28.2 µM (inactive); in the assay on SR, 19.1 µM (inactive); in the assay on OVCAR-5, 44.3 µM (inactive). Also, the GI50 was 13.5 µM (inactive) in the assay on NCI-H226; 32.1 µM (inactive) in the assay on ACHN; 37.8 µM (inactive) with SF-295; 22.5 µM (inactive) with LOX IMVI; 24.9 µM (inactive) in the assay on MDA-MB-435; 30.1 µM (inactive) with RPMI-8226. The GI50 in the assay on HCT-15 was 30.8 µM; in the assay with CAKI-1, 21.5 µM (inactive); with K562, 28.9 µM (inactive); in the assay on NCI/ADR-RES, 40.4 µM (inactive); in the assay with SN12C, 36.5 µM (inactive); in the assay on MOLT-4 it was 24.3 µM (inactive). For the same molecule, the GI50 in the assay on MDA-MB-231 is 37.9 µM (inactive).
Consider `FC(F)(Sc1ccccn1)c1nc2ccccc2o1`, for which the GI50 was 38.6 µM (inactive) in the assay with U-251; > 100 µM (inactive) with UACC-62; > 100 µM (inactive) in the assay on SK-OV-3; > 100 µM (inactive) in the assay with DU-145; > 100 µM (inactive) in the assay on NCI-H460; > 100 µM (inactive) with SR. Also, the GI50 in the assay with OVCAR-5, in the assay with NCI-H226, in the assay on ACHN, with SF-295, with MDA-MB-435 and with RPMI-8226 was > 100 µM (inactive) in each case. Further, the GI50 in the assay with HCT-15 is 55.7 µM; with CAKI-1 it was > 100 µM (inactive); in the assay on K562, 60.5 µM (inactive); in the assay on NCI/ADR-RES, 85.3 µM (inactive); in the assay with SN12C, > 100 µM (inactive); in the assay with MOLT-4 it was > 100 µM (inactive). The GI50 in the assay with MDA-MB-231 is > 100 µM (inactive).
For `N#CCCN(CCC#N)c1ccc(C(/N=N/c2ccc(Cl)cc2)=N\c2ccccc2)cc1`, the GI50 was 17.6 µM (inactive) in the assay with U-251; 6.49 µM (inactive) with UACC-62; 13.2 µM (inactive) in the assay with SK-OV-3; 13.4 µM (inactive) in the assay with DU-145; 7.78 µM (inactive) with NCI-H460; 16 µM (inactive) in the assay with SR. The GI50 in the assay with OVCAR-5 is 12.4 µM (inactive); in the assay on NCI-H226, 16 µM (inactive); in the assay on ACHN, 13.4 µM (inactive); with SF-295 it was 1.06 µM (active); in the assay with MDA-MB-435, 11 µM (inactive); in the assay with RPMI-8226, 43.6 µM (inactive). Besides, the GI50 is 5.93 µM with HCT-15; 12.2 µM (inactive) with CAKI-1; 41.7 µM (inactive) in the assay on K562; 10.8 µM (inactive) in the assay on NCI/ADR-RES; 18.4 µM (inactive) in the assay with SN12C; 22.7 µM (inactive) in the assay with MOLT-4. Also, in the assay with MDA-MB-231, the GI50 was 18.1 µM (inactive).
As to `CCC1CC2CN3CCc4c([nH]c5c(-c6c(OC)ccc7c8c([nH]c67)[C@]6(C(=O)OC)CC7CC(CC)C6N(CC8)C7)c(O)ccc45)[C@](C(=O)OC)(C2)C13` (stereo partly specified), the GI50 was 12.9 µM (inactive) in the assay with U-251; 14.3 µM (inactive) in the assay on UACC-62; 25.6 µM (inactive) in the assay on SK-OV-3; 14.9 µM (inactive) in the assay on DU-145; 14.7 µM (inactive) in the assay on NCI-H460; 13.3 µM (inactive) with SR. Further, the GI50 in the assay with OVCAR-5 is 16.6 µM (inactive); in the assay with NCI-H226, 4.92 µM (inactive); in the assay on ACHN it was 19.6 µM (inactive); with SF-295, 17.4 µM (inactive); with LOX IMVI it was 14.8 µM (inactive); with MDA-MB-435, 11.1 µM (inactive). Besides, the GI50 in the assay with HCT-15 is 15.2 µM; in the assay on CAKI-1, 12.6 µM (inactive); with K562, 6.19 µM (inactive); in the assay on NCI/ADR-RES, 20.4 µM (inactive); in the assay on SN12C it was 4.34 µM (inactive); in the assay with MOLT-4, 2.64 µM (inactive). Moreover, in the assay on MDA-MB-231, the GI50 is 21.6 µM (inactive).
Take `N#CCOc1cccc(C2(N3CC=CCC3)CCCCC2)c1`: the GI50 with U-251, in the assay on UACC-62, in the assay with SK-OV-3, with DU-145, in the assay on SR and with OVCAR-5 was > 100 µM (inactive) in each case. The GI50 is > 100 µM (inactive) with NCI-H226; > 100 µM (inactive) in the assay with ACHN; > 100 µM (inactive) with SF-295; 97.9 µM (inactive) in the assay on LOX IMVI; > 100 µM (inactive) in the assay on MDA-MB-435; 77.6 µM (inactive) in the assay with RPMI-8226. The GI50 in the assay on HCT-15 was more than 100 µM; in the assay on CAKI-1 it was > 100 µM (inactive); in the assay with K562, 43 µM (inactive); in the assay on NCI/ADR-RES it was > 100 µM (inactive); in the assay on SN12C it was > 100 µM (inactive); in the assay with MOLT-4 it was 56.6 µM (inactive). Also, the GI50 in the assay with MDA-MB-231 is > 100 µM (inactive).
For the molecule `O=C(c1ccccc1)c1ccc2c(c1)nc1n2C(c2c(Cl)cccc2Cl)SC1` (stereo unspecified), the GI50 with U-251 was 69.5 µM (inactive); with UACC-62, 74.1 µM (inactive); in the assay on SK-OV-3, > 100 µM (inactive); in the assay on DU-145 it was > 100 µM (inactive); in the assay on NCI-H460, 40.2 µM (inactive); with SR, 34 µM (inactive). Further, the GI50 is > 100 µM (inactive) in the assay with OVCAR-5; > 100 µM (inactive) with NCI-H226; 71.6 µM (inactive) in the assay on ACHN; 27.6 µM (inactive) with SF-295; 44 µM (inactive) in the assay with LOX IMVI; 59.2 µM (inactive) in the assay with MDA-MB-435. The GI50 is 52.4 µM (inactive) in the assay with RPMI-8226; 56 µM in the assay on HCT-15; 70.6 µM (inactive) with CAKI-1; 40.3 µM (inactive) with NCI/ADR-RES; > 100 µM (inactive) with SN12C; 31.4 µM (inactive) in the assay with MOLT-4. Besides, in the assay on MDA-MB-231, the GI50 is > 100 µM (inactive).
As to `CC1=NN(c2cccc(Cl)c2)C2(SCC(=O)N2c2nc3ccccc3s2)/C1=C\c1ccccc1` (stereo unspecified), the GI50 in the assay with U-251 was 19.7 µM (inactive); with SK-OV-3 it was 19.9 µM (inactive); in the assay with DU-145, 22 µM (inactive); with NCI-H460, 15.3 µM (inactive); in the assay on SR, 22.3 µM (inactive); in the assay with OVCAR-5, 22.4 µM (inactive). The GI50 in the assay on NCI-H226 is 19 µM (inactive); with ACHN it was 19.6 µM (inactive); in the assay on SF-295, 21.6 µM (inactive); in the assay on LOX IMVI it was 25.5 µM (inactive); in the assay on MDA-MB-435, 18.3 µM (inactive); in the assay with RPMI-8226, 18.7 µM (inactive). In addition, the GI50 with HCT-15 is 16 µM; with CAKI-1, 20 µM (inactive); with K562, 17.6 µM (inactive); in the assay on NCI/ADR-RES it was 24.9 µM (inactive); in the assay with MOLT-4, 21.2 µM (inactive); in the assay with MDA-MB-231, 24.4 µM (inactive).
Consider `O=S(=O)(O)/C(=N\c1cccc(Cc2ccccc2)c1)Nc1cccc(Cc2ccccc2)c1`, for which the GI50 was 19.6 µM (inactive) in the assay with U-251; 16.5 µM (inactive) with UACC-62; 21 µM (inactive) with SK-OV-3; 17 µM (inactive) with DU-145; 21.9 µM (inactive) in the assay on SR; 18.1 µM (inactive) with OVCAR-5. The GI50 in the assay on NCI-H226 is 18 µM (inactive); with ACHN, 17.4 µM (inactive); in the assay on SF-295, 18.2 µM (inactive); in the assay with LOX IMVI, 12.9 µM (inactive); with MDA-MB-435 it was 20.1 µM (inactive); in the assay on RPMI-8226, 23.8 µM (inactive). Besides, the GI50 in the assay with HCT-15 is 17.6 µM; with CAKI-1, 42.5 µM (inactive); with K562, 31.4 µM (inactive); in the assay with NCI/ADR-RES it was 18.2 µM (inactive); in the assay with SN12C, 19.5 µM (inactive); in the assay with MOLT-4 it was 32.1 µM (inactive). Also, in the assay on MDA-MB-231, the GI50 is 17.8 µM (inactive).
Take `O=c1[nH]cc(F)c(=O)[nH]1` [FLUOROURACIL]: the GI50 was 44.3 µM (inactive) in the assay with U-251; 13.9 µM (inactive) with UACC-62; 171 µM (inactive) with SK-OV-3; 9.29 µM (inactive) in the assay with DU-145; 1.05 µM (active) in the assay on NCI-H460; 4.36 µM (inactive) with SR. The GI50 is 172 µM (inactive) in the assay with OVCAR-5; 250 µM (inactive) in the assay on NCI-H226; 9.62 µM (inactive) in the assay with ACHN; 51.9 µM (inactive) in the assay with SF-295; 6.03 µM (inactive) with LOX IMVI; 10.6 µM (inactive) in the assay with MDA-MB-435. Moreover, the GI50 with RPMI-8226 was 4.91 µM (inactive); in the assay on CAKI-1, 4.45 µM (inactive); in the assay with K562, 21.2 µM (inactive); in the assay with NCI/ADR-RES, 41.3 µM (inactive); in the assay on SN12C it was 24.9 µM (inactive); in the assay on MOLT-4, 14 µM (inactive). Also, in the assay with MDA-MB-231, the GI50 is 489 µM (inactive).
